# Experimental data from patent US11952611B2, “Methods and systems for detection of antibiotic resistance” (Laboratory Corporation of America Holdings, priority 2017, dated 2024).
# Legend:
# Assay type in all cases: cell-based, Staphylococcus aureus
# [1] = system: MSSA; experiment: Optimization of cefoxitin concentration (Table 2), MSSA strains
# Protocol: (§1) Bacterial strains were serially diluted to approximately 1×10^3 CFU/mL and transferred to a 96-well plate at 135 μL per well. 15 μL of cefoxitin was added to the wells to reach a final concentration of 1.4 μg/mL, 1.6 μg/mL, 1.8 μg/mL or 2.0 μg/mL. The plate was then sealed and incubated at 37° C. for 2 hours. 10 μL of recombinant phage (1.6×10^8 pfu/mL) was added to each well. The plate was then re-sealed and incubated at 37° C. for an additional 2 hours. A master mix was made containing 15 μL 5× lysis buffer, 50 μL luciferase assay buffer, and 1 μL luciferase substrate per well. 65 μL of master mix was added to each well. Luminescence from the reactions were read on a GLOMAX® Navigator and relative luminal units (RLU) for each reaction were plotted and analyzed. RLU values three times greater than an established background RLU level for LB (>750 RLU) were considered positive. The results, shown in Table 2, indicate that the recombinant phage are capable of detecting these bacterial strains. […] Positive results are in bold.
# [2] = system: BAA-1720 - MRSA; experiment: Table 6, MRSA alone; conditions: MSSA detected CFU 0, MRSA 38
# Protocol: Bacterial strains were serially diluted and transferred to a 96-well plate at 135 μL per well. 15 μL of cefoxitin was added to the wells to reach a final concentration of 1.8 μg/mL. The plate was then sealed and incubated at 37° C. for 2 hours or 3 hours. 10 μL of recombinant phage (1.6×10^8 pfu/mL) was added to each well. The plate was then re-sealed and incubated at 37° C. for an additional 1 or 2 hours. A master mix was made containing 15 μL 5× lysis buffer, 50 μL luciferase assay buffer, and 1 μL luciferase substrate per well. 65 μL of master mix was added to each well. Luminescence from the reactions was read on a GLOMAX® Navigator and relative luminal units (RLU) for each reaction were plotted and analyzed. RLU values three times greater than an established background RLU level for LB (>750 RLU) were considered positive. The results, shown in Table 6, indicate that samples with MRSA (38 CFU) can be distinguished from samples containing MSSA (up to 5088 CFU) using a 3-hour antibiotic/1-hour phage incubation protocol. Positive results are in bold. In Table 6, CFU values (318 CFU and 156 CFU) were experimentally validated by direct plating.
# [3] = system: MRSA; experiment: Recombinant phage luciferase assay, oxacillin vs cefoxitin (Table 1), MRSA strains
# Protocol: Bacterial strains were serially diluted to approximately 1×10^3 CFU/mL and transferred to a 96-well plate at 135 μL per well. 15 μL of oxacillin or cefoxitin were added to the wells to reach a final concentration of 1.0 μg/mL or 2.0 μg/mL of oxicillin or 2.0 μg/mL, 4.0 μg/mL, 8.0 μg/mL, or 10.0 μg/mL of cefoxitin. The plate was then sealed and incubated at 37° C. for 2 hours. 10 μL of recombinant phage (1.6×10^8 pfu/mL) was added to each well. The plate was then re-sealed and incubated at 37° C. for 2 hours. A master mix was made containing 15 μL 5× lysis buffer, 50 μL luciferase assay buffer, and 1 μL luciferase substrate per well. 65 μL of master mix was added to each well. Luminescence from the reactions was read on a GLOMAX® Navigator and relative luminal units (RLU) for each reaction were analyzed. RLU values three times greater than an established background RLU level for LB (>750 RLU) were considered positive. The results, shown in Table 1, indicate that the recombinant phage are capable of detecting the tested bacterial strains.
# [4] = system: MRSA; experiment: Optimization of cefoxitin concentration (Table 2), MRSA strains
# Protocol: as §1
# [5] = strain 12600 MSSA, detected CFU 401
# [6] = strain AR0484 MSSA, detected CFU 107
# [7] = strain AR0485 MSSA, detected CFU 248
# [8] = strain AR0486 MSSA, detected CFU 163
# [9] = strain AR0487 MSSA, detected CFU 198
# [10] = strain AR0488 MSSA, detected CFU 360
# [11] = strain AR0489 MSSA, detected CFU 186
# [12] = strain AR0490 MSSA, detected CFU 109
# [13] = strain AR0491 MSSA, detected CFU 239
# [14] = strain AR0492 MSSA, detected CFU 130
# [15] = strain BAA-1721 MSSA, detected CFU 166
# [16] = strain AR0463 MRSA, detected CFU 419
# [17] = strain AR0465 MRSA, detected CFU 111
# [18] = strain AR0472 MRSA, detected CFU 190
# [19] = strain AR0476 MRSA, detected CFU 194
# [20] = strain AR0481 MRSA, detected CFU 43
# [21] = strain BAA-1720 MRSA, detected CFU 201
# [22] = strain AR0470 MRSA, detected CFU 314
# [23] = strain BAA-2313 MRSA, detected CFU 192
structure (smiles),measurement,setting,value
"CO[C@@]1(NC(=O)Cc2cccs2)C(=O)N2C(C(=O)O)=C(COC(N)=O)CS[C@@H]21 [Cefoxitin, cefoxitin]",effect on positive signal,"[1]; 1.8 ug/mL, most MSSA strains",selectively inhibit a positive signal
same,Cefoxitin Concentration 1.4 ug/mL,[1]; [5],2489 RLU
same,Cefoxitin Concentration 1.6 ug/mL,[1]; [5],1596 RLU
same,Cefoxitin Concentration 1.8 ug/mL,[1]; [5],974 RLU
same,Cefoxitin Concentration 2 ug/mL,[1]; [5],750 RLU
same,Cefoxitin Concentration 1.4 ug/mL,[1]; [6],174 RLU
same,Cefoxitin Concentration 1.6 ug/mL,[1]; [6],176 RLU
same,Cefoxitin Concentration 1.8 ug/mL,[1]; [6],187 RLU
same,Cefoxitin Concentration 2 ug/mL,[1]; [6],181 RLU
same,Cefoxitin Concentration 1.4 ug/mL,[1]; [7],1328 RLU
same,Cefoxitin Concentration 1.6 ug/mL,[1]; [7],812 RLU
same,Cefoxitin Concentration 1.8 ug/mL,[1]; [7],655 RLU
same,Cefoxitin Concentration 2 ug/mL,[1]; [7],404 RLU
same,Cefoxitin Concentration 1.4 ug/mL,[1]; [8],4238 RLU
same,Cefoxitin Concentration 1.6 ug/mL,[1]; [8],1743 RLU
same,Cefoxitin Concentration 1.8 ug/mL,[1]; [8],1099 RLU
same,Cefoxitin Concentration 2 ug/mL,[1]; [8],794 RLU
same,Cefoxitin Concentration 1.4 ug/mL,[1]; [9],336 RLU
same,Cefoxitin Concentration 1.6 ug/mL,[1]; [9],227 RLU
same,Cefoxitin Concentration 1.8 ug/mL,[1]; [9],204 RLU
same,Cefoxitin Concentration 2 ug/mL,[1]; [9],165 RLU
same,Cefoxitin Concentration 1.4 ug/mL,[1]; [10],2274 RLU
same,Cefoxitin Concentration 1.6 ug/mL,[1]; [10],1149 RLU
same,Cefoxitin Concentration 1.8 ug/mL,[1]; [10],402 RLU
same,Cefoxitin Concentration 2 ug/mL,[1]; [10],256 RLU
same,Cefoxitin Concentration 1.4 ug/mL,[1]; [11],6208 RLU
same,Cefoxitin Concentration 1.6 ug/mL,[1]; [11],3172 RLU
same,Cefoxitin Concentration 1.8 ug/mL,[1]; [11],2029 RLU
same,Cefoxitin Concentration 2 ug/mL,[1]; [11],870 RLU
same,Cefoxitin Concentration 1.4 ug/mL,[1]; [12],1277 RLU
same,Cefoxitin Concentration 1.6 ug/mL,[1]; [12],598 RLU
same,Cefoxitin Concentration 1.8 ug/mL,[1]; [12],423 RLU
same,Cefoxitin Concentration 2 ug/mL,[1]; [12],258 RLU
same,Cefoxitin Concentration 1.4 ug/mL,[1]; [13],1438 RLU
same,Cefoxitin Concentration 1.6 ug/mL,[1]; [13],676 RLU
same,Cefoxitin Concentration 1.8 ug/mL,[1]; [13],518 RLU
same,Cefoxitin Concentration 2 ug/mL,[1]; [13],338 RLU
same,Cefoxitin Concentration 1.4 ug/mL,[1]; [14],1883 RLU
same,Cefoxitin Concentration 1.6 ug/mL,[1]; [14],839 RLU
same,Cefoxitin Concentration 1.8 ug/mL,[1]; [14],556 RLU
same,Cefoxitin Concentration 2 ug/mL,[1]; [14],246 RLU
same,Cefoxitin Concentration 1.4 ug/mL,[1]; [15],2753 RLU
same,Cefoxitin Concentration 1.6 ug/mL,[1]; [15],1087 RLU
same,Cefoxitin Concentration 1.8 ug/mL,[1]; [15],441 RLU
same,Cefoxitin Concentration 2 ug/mL,[1]; [15],258 RLU
same,2 HR AB + 2 HR Phage 1.8 ug/mL,[2],4218 RLU
same,3 HR AB + 1 HR Phage 1.8 ug/mL,[2],3136 RLU
same,Cefoxitin (RLU) 2 ug/mL,[3]; [16],1125 RLU
same,Cefoxitin (RLU) 4 ug/mL,[3]; [16],349 RLU
same,Cefoxitin (RLU) 8 ug/mL,[3]; [16],287 RLU
same,Cefoxitin (RLU) 10 ug/mL,[3]; [16],246 RLU
same,Cefoxitin (RLU) 2 ug/mL,[3]; [17],7815 RLU
same,Cefoxitin (RLU) 4 ug/mL,[3]; [17],5254 RLU
same,Cefoxitin (RLU) 8 ug/mL,[3]; [17],4619 RLU
same,Cefoxitin (RLU) 10 ug/mL,[3]; [17],2869 RLU
same,Cefoxitin (RLU) 2 ug/mL,[3]; [18],3538 RLU
same,Cefoxitin (RLU) 4 ug/mL,[3]; [18],229 RLU
same,Cefoxitin (RLU) 8 ug/mL,[3]; [18],239 RLU
same,Cefoxitin (RLU) 10 ug/mL,[3]; [18],220 RLU
same,Cefoxitin (RLU) 2 ug/mL,[3]; [19],1202 RLU
same,Cefoxitin (RLU) 4 ug/mL,[3]; [19],213 RLU
same,Cefoxitin (RLU) 8 ug/mL,[3]; [19],204 RLU
same,Cefoxitin (RLU) 10 ug/mL,[3]; [19],248 RLU
same,Cefoxitin (RLU) 2 ug/mL,[3]; [20],3499 RLU
same,Cefoxitin (RLU) 4 ug/mL,[3]; [20],983 RLU
same,Cefoxitin (RLU) 8 ug/mL,[3]; [20],222 RLU
same,Cefoxitin (RLU) 10 ug/mL,[3]; [20],250 RLU
same,Cefoxitin (RLU) 2 ug/mL,[3]; [21],14910 RLU
same,Cefoxitin (RLU) 4 ug/mL,[3]; [21],11250 RLU
same,Cefoxitin (RLU) 8 ug/mL,[3]; [21],7123 RLU
same,Cefoxitin (RLU) 10 ug/mL,[3]; [21],6431 RLU
same,effect on positive signal,"[4]; 1.8 ug/mL, most of the tested MRSA strains",produced a positive signal
same,Cefoxitin Concentration 1.4 ug/mL,"[4]; strain AR0461 MRSA, detected CFU 140",9488 RLU
same,Cefoxitin Concentration 2 ug/mL,"[4]; strain AR0467 MRSA, detected CFU 198",6615 RLU
same,Cefoxitin Concentration 1.8 ug/mL,"[4]; strain AR0469 MRSA, detected CFU 473",13490 RLU
same,Cefoxitin Concentration 1.6 ug/mL,[4]; [22],2481 RLU
same,Cefoxitin Concentration 1.8 ug/mL,[4]; [22],2046 RLU
same,Cefoxitin Concentration 1.4 ug/mL,[4]; [23],8601 RLU
same,Cefoxitin Concentration 1.6 ug/mL,[4]; [23],5620 RLU
same,Cefoxitin Concentration 1.8 ug/mL,[4]; [23],3239 RLU
same,Cefoxitin Concentration 2 ug/mL,[4]; [23],2385 RLU
